Source: patent US20100284966A1 (priority 2005, published 2010)

System: HCV replicon

Cn1cnc([N+](=O)[O-])c1Sc1ncnc2[nH]cnc12 [AZA]
fewer cells (toxicity): ~10%
